Test results from PubChem BioAssay (NCI).
Where “and” joins values, the source holds several entries; their conditions need not be identical. Identical values can stand only once.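 How tested: cells in 96-well plates exposed to compound for 48 hours at five concentrations. GI50: concentration for 50% inhibition of growth. TGI marks complete inhibition of growth.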

test system: SW-620 colon; test: inhibition of tumour cell growth, NCI panel, 48 h

SMILES	GI50	TGI
CN1CCN(C(=O)OCc2nc3c(N4CCOCC4)nc(Cl)nc3n2C)CC1	0.484 µM	1.83 µM
COC(=O)[C@]12CC[C@@H](C)[C@H](C)[C@@H]1C1=CC[C@@H]3[C@@]4(C)C/C(=N\O)[C@H](O)[C@@]5(C)COC(=C45)C[C@@]3(C)[C@]1(C)CC2	8.42 µM	21.9 µM
Oc1c(CN2CCC(N3CCCCC3)CC2)cc(Cc2cc(CN3CCC(N4CCCCC4)CC3)c(O)c3ncccc23)c2cccnc12	0.726 µM	15.1 µM
Cn1c2ccccc2c2c(-c3ccccc3)[n+]3ccncc3nc21	> 100 µM	> 100 µM
COc1ccc(-c2cnnc3c(-c4cccc(C(F)(F)F)c4)cnn23)cc1	> 100 µM	> 100 µM
NC(=O)c1ccc(I)c(N)c1	> 100 µM	> 100 µM
CC/C(=C(/c1ccc(O)cc1)c1ccc(OCCNC)cc1)c1ccccc1	1.72 µM	3.26 µM
O=C(/C(Br)=C/c1ccccc1)c1ccccc1	1.63 µM	3.9 µM
C=C1C(=O)O[C@H]2[C@H]1CC/C(Cn1cc(-c3ccc(OC)cc3)nn1)=C\CC[C@@]1(C)O[C@@H]21	0.498 µM	1.74 µM
O=C1CCCCN1CCCCC#Cc1ccccc1C#Cc1ccc([N+](=O)[O-])cc1	5.18 µM	18.3 µM
CCOc1cc2c(Cl)ncnc2c(OCC)c1OCC	2.88 µM	9.24 µM
Oc1ccc2ccccc2c1N=Nc1nccs1	0.396 µM	19.5 µM
CC(=O)OCCN1c2ccccc2Sc2cnccc21	–	> 10 µM
COc1ccc(/C(COc2c(-c3ccccc3)oc3ccccc3c2=O)=N\O)cc1	19.5 µM	> 50 µM
Cn1c(=O)c2[nH]c(SCc3ccccn3)nc2n(C)c1=S	–	> 100 µM
COc1cc2c(c(O)c1Br)C(=O)c1c(O)cc(C[C@H](C)O)cc1[C@H]2[C@H]1c2cc(C[C@H](C)O)cc(O)c2C(=O)c2c1cc(OC)c(Br)c2O	5.36 µM and 19.9 µM	67.5 µM and > 100 µM
COc1ccc(-c2cc(=O)c3ccc(O)cc3o2)cc1OC	–	> 100 µM
CC[C@]1(O)C[C@@H]2CN(CCc3c([nH]c4ccccc34)[C@@](C(=O)OC)(c3cc4c(cc3OC)N(C)[C@H]3[C@@](O)(C(=O)OC)[C@H](OC(C)=O)[C@]5(CC)C=CCN6CC[C@]43[C@@H]65)C2)C1	< 0.01 µM	> 100 µM
N#CSc1c[nH]c2cccc(/C=C/C(=O)/C=C(/C=C/c3cccc4[nH]cc(SC#N)c34)OB(F)F)c12	0.351 µM	1.33 µM
C=CC(=O)N1CC2(CCN(c3nc(OC4CCN(CCCOC)CC4)nc4c(OCC(F)(F)F)c(-c5c(C)ccc6[nH]ncc56)c(C5CC5)cc34)CC2)C1	1.82 µM	3.59 µM
FC(F)(F)c1cccc(Nc2nccc(-c3cnn4nc(-c5ccccc5)ccc34)n2)c1	8.65 µM	> 21.4 µM
CC[C@@H]1C(=O)N(C)c2cnc(Nc3ccc(C(=O)NC4CCN(C)CC4)cc3OC)nc2N1C1CCCC1	0.00299 µM and < 0.01 µM	> 10 µM and 3.1 µM
C=C1C(=O)O[C@H]2[C@H]1CC/C(COC(=O)c1ccc3ccccc3c1)=C\CC[C@@]1(C)O[C@@H]21	0.356 µM	1.39 µM
CC[CH2][Sn]([CH2]CC)([O]C(=O)c1cccnc1SC)[O][Sn]([CH2]CC)([CH2]CC)[O]C(=O)c1cccnc1SC	0.216 µM	0.503 µM
CC(C)c1nc(CN(C)C(=O)N[C@H](C(=O)N[C@@H](Cc2ccccc2)C[C@H](O)[C@H](Cc2ccccc2)NC(=O)OCc2cncs2)C(C)C)cs1	34.9 µM	> 100 µM

test system: RXF 393 renal; test: inhibition of tumour cell growth, NCI panel, 48 h

SMILES	GI50	TGI
CN1CCN(C(=O)OCc2nc3c(N4CCOCC4)nc(Cl)nc3n2C)CC1	1.08 µM	2.31 µM
COC(=O)[C@]12CC[C@@H](C)[C@H](C)[C@@H]1C1=CC[C@@H]3[C@@]4(C)C/C(=N\O)[C@H](O)[C@@]5(C)COC(=C45)C[C@@]3(C)[C@]1(C)CC2	2.41 µM	7.36 µM
Oc1c(CN2CCC(N3CCCCC3)CC2)cc(Cc2cc(CN3CCC(N4CCCCC4)CC3)c(O)c3ncccc23)c2cccnc12	1.94 µM	10.2 µM
Cn1c2ccccc2c2c(-c3ccccc3)[n+]3ccncc3nc21	> 100 µM	> 100 µM
COc1ccc(-c2cnnc3c(-c4cccc(C(F)(F)F)c4)cnn23)cc1	0.0291 µM	3.07 µM
NC(=O)c1ccc(I)c(N)c1	> 100 µM	> 100 µM
CC/C(=C(/c1ccc(O)cc1)c1ccc(OCCNC)cc1)c1ccccc1	1.68 µM	3.69 µM
O=C(/C(Br)=C/c1ccccc1)c1ccccc1	1.43 µM	2.85 µM
C=C1C(=O)O[C@H]2[C@H]1CC/C(Cn1cc(-c3ccc(OC)cc3)nn1)=C\CC[C@@]1(C)O[C@@H]21	0.703 µM	2.02 µM
O=C1CCCCN1CCCCC#Cc1ccccc1C#Cc1ccc([N+](=O)[O-])cc1	1.68 µM	11.1 µM
CCOc1cc2c(Cl)ncnc2c(OCC)c1OCC	7.74 µM	22.1 µM
Oc1ccc2ccccc2c1N=Nc1nccs1	3.33 µM	> 59.2 µM
CC(=O)OCCN1c2ccccc2Sc2cnccc21	–	> 10 µM
COc1ccc(/C(COc2c(-c3ccccc3)oc3ccccc3c2=O)=N\O)cc1	31.9 µM	> 50 µM
Cn1c(=O)c2[nH]c(SCc3ccccn3)nc2n(C)c1=S	–	> 100 µM
COc1cc2c(c(O)c1Br)C(=O)c1c(O)cc(C[C@H](C)O)cc1[C@H]2[C@H]1c2cc(C[C@H](C)O)cc(O)c2C(=O)c2c1cc(OC)c(Br)c2O	2.59 µM and 2.72 µM	22 µM and 9.33 µM
COc1ccc(-c2cc(=O)c3ccc(O)cc3o2)cc1OC	–	38.6 µM
CC[C@]1(O)C[C@@H]2CN(CCc3c([nH]c4ccccc34)[C@@](C(=O)OC)(c3cc4c(cc3OC)N(C)[C@H]3[C@@](O)(C(=O)OC)[C@H](OC(C)=O)[C@]5(CC)C=CCN6CC[C@]43[C@@H]65)C2)C1	< 0.01 µM	3.77 µM
N#CSc1c[nH]c2cccc(/C=C/C(=O)/C=C(/C=C/c3cccc4[nH]cc(SC#N)c34)OB(F)F)c12	0.226 µM	0.516 µM
C=CC(=O)N1CC2(CCN(c3nc(OC4CCN(CCCOC)CC4)nc4c(OCC(F)(F)F)c(-c5c(C)ccc6[nH]ncc56)c(C5CC5)cc34)CC2)C1	1.8 µM	3.73 µM
FC(F)(F)c1cccc(Nc2nccc(-c3cnn4nc(-c5ccccc5)ccc34)n2)c1	4.63 µM	10 µM
CC[C@@H]1C(=O)N(C)c2cnc(Nc3ccc(C(=O)NC4CCN(C)CC4)cc3OC)nc2N1C1CCCC1	0.0047 µM and < 0.01 µM	0.627 µM and 0.576 µM
C=C1C(=O)O[C@H]2[C@H]1CC/C(COC(=O)c1ccc3ccccc3c1)=C\CC[C@@]1(C)O[C@@H]21	0.286 µM	1.48 µM
CC[CH2][Sn]([CH2]CC)([O]C(=O)c1cccnc1SC)[O][Sn]([CH2]CC)([CH2]CC)[O]C(=O)c1cccnc1SC	0.0992 µM	0.342 µM
CC(C)c1nc(CN(C)C(=O)N[C@H](C(=O)N[C@@H](Cc2ccccc2)C[C@H](O)[C@H](Cc2ccccc2)NC(=O)OCc2cncs2)C(C)C)cs1	17.7 µM	35.8 µM

test system: UACC-257 melanoma; test: inhibition of tumour cell growth, NCI panel, 48 h

SMILES	GI50 [µM]	TGI [µM]
CN1CCN(C(=O)OCc2nc3c(N4CCOCC4)nc(Cl)nc3n2C)CC1	1.39	3.22
COC(=O)[C@]12CC[C@@H](C)[C@H](C)[C@@H]1C1=CC[C@@H]3[C@@]4(C)C/C(=N\O)[C@H](O)[C@@]5(C)COC(=C45)C[C@@]3(C)[C@]1(C)CC2	18.6	34.5
Oc1c(CN2CCC(N3CCCCC3)CC2)cc(Cc2cc(CN3CCC(N4CCCCC4)CC3)c(O)c3ncccc23)c2cccnc12	2.08	4.31
Cn1c2ccccc2c2c(-c3ccccc3)[n+]3ccncc3nc21	59.5	> 100
COc1ccc(-c2cnnc3c(-c4cccc(C(F)(F)F)c4)cnn23)cc1	6.44	> 100
NC(=O)c1ccc(I)c(N)c1	> 100	> 100
CC/C(=C(/c1ccc(O)cc1)c1ccc(OCCNC)cc1)c1ccccc1	1.64	3.15
O=C(/C(Br)=C/c1ccccc1)c1ccccc1	1.86	4.49
C=C1C(=O)O[C@H]2[C@H]1CC/C(Cn1cc(-c3ccc(OC)cc3)nn1)=C\CC[C@@]1(C)O[C@@H]21	1.78	3.85
O=C1CCCCN1CCCCC#Cc1ccccc1C#Cc1ccc([N+](=O)[O-])cc1	2.89	8.24
CCOc1cc2c(Cl)ncnc2c(OCC)c1OCC	6.95	22
